Where two headings read alike, the source gives them in different places.
Tested on: DLD-1 BRCA2−/− cells
Assay: Homologous recombination synthetic lethal inhibition of proliferation, DLD-1 BRCA2-/- (Cell Titre Glo 3D)
Format: cell-based
Conditions: for IC50: Homo sapiens; for POLQ PD Prolif Lumin: DLD-1 BRCA2-/- proliferation
Description: This assay identifies anti-proliferative effects of POLQ compounds in the homologous recombination deficient colorectal cell line DLD-1 BRCA2−/− over 8-9 population doublings (7 days for DLD-1 and 12 days for DLD-1 BRCA2−/−). DLD1 BRCA2 wt are used as a control to detect cell toxic effects not specific to homologous recombination deficiency.
DLD-1 BRCA2−/− and DLD-1 cells were kept in continuous culture in Assay Medium (RPMI 1640 phenol red free (Sigma R7509) containing 1% GlutaMAX (Gibco 35050) and 10% Foetal Bovine Serum (Gibco 10270-106)). On the day of the assay cells in culture of ˜80-90% confluent were used. Cell monolayers were washed with 10 mL PBS, then removed and added 2 mL TrypLE Express (Gibco 12604). The cells with TrypLE Express were incubated for 5 minutes in cell culture incubator and then the detached cells resuspend in 15 mL Assay Medium. Cells were counted using a ViCell and the cell images were monitored for clumps of cells, ideally they should be single or <3 cell clusters. The cells were diluted to 3,000 cells/mL of DLD-1 BRCA2−/− and 1,500 cells/mL of DLD-1 in Assay Medium and 100 μL added per well of transparent bottomed, black, tissue culture-treated 96-well plates (CoStar, No. 3904) Assay Ready Plates. The Assay Ready Plates contain a 10 point 10 μM to 0.51 nM dose range with three-fold dilutions in DMSO with a final volume of 100 nL. The plates were incubated at 37° C. with 5% C02 for 6 days. On day 6, 100 μL/well of Assay Medium was added to duplicate Assay Ready Plates. 90 μL of culture medium was removed from the cell plates and replenished with the Assay Media and compounds from the duplicate Assay Ready Plates using the Bravo. The plates were further incubated at 37° C. with 5% CO2. On day 7 the plates containing DLD-1 and Cell Titre Glo 3D (Promega G9683) were equilibrated to room temperature, then 60 μL of Cell Titre Glo 3D was added per well and incubated on a shaking platform for 30 min. Plates were read on the Envision measuring luminescence for 1 second per well. On day 12 the plates containing DLD-1 BRCA2−/− cells and Cell Titre Glo 3D (Promega G9683) were equilibrated to room temperature, then 60 μL Cell Titre Glo 3D added per well and incubated on a shaking platform for 30 min. Plates were read on the Envision measuring luminescence for 1 second per well. The data was exported into a suitable software package (such as Genedata) to perform curve fitting analysis. Inhibition of cell proliferation was expressed as an IC5o value and was determined by calculation of the concentration of compound that was required to give a 50% reduction of the average maximum Total Intensity signal.

[1] = DLD-1, DLD-1 BRCA2 −/−, mean, read-out: POLQ PD Prolif Lumin BRCA2 −/− mean pIC50 (converted)
[2] = DLD-1, first proliferation column (c5), DLD-1 BRCA2-/-, read-out: POLQ PD Prolif Lumin (converted)
[3] = DLD-1, DLD-1 BRCA2-/- proliferation, column head only partly shown, read-out: POLQ PD Prolif Lumin (converted)

**Q.** `CC(CCOc1ccc(-c2nc3c(OC4(C)CC4)ncnc3n2Cc2cc(C(F)(F)F)cc(Cl)c2F)c(Cl)c1)C(=O)O` (racemic) [Example U35, 4-(3-chloro-4-(9-(3-chloro-2-fluoro-5-(trifluoromethyl)benzyl)-6-(1-methylcyclopropoxy)-9H-purin-8-yl)phenoxy)-2-methylbutanoic acid] was tested. Which IC50 [1] did it give?
**A.** 158 nM

**Q.** `Cc1ccc(Cl)cc1Cn1c(-c2ccc(OCCC(C)C(=O)O)cc2Cl)nc2c(OC3(C)CC3)ncnc21` (racemic) [Example U36, 4-(3-chloro-4-(9-(5-chloro-2-methylbenzyl)-6-(1-methylcyclopropoxy)-9H-purin-8-yl)phenoxy)-2-methylbutanoic acid] was tested. Which IC50 [1] did it give?
**A.** 316 nM

**Q.** `CC(CCOc1ccc(-c2nc3c(OC4(C)CC4)ncnc3n2Cc2cccc(Cl)c2C#N)c(Cl)c1)C(=O)O` (racemic) [Example U37, 4-(3-chloro-4-(9-(3-chloro-2-cyanobenzyl)-6-(1-methylcyclopropoxy)-9H-purin-8-yl)phenoxy)-2-methylbutanoic acid] was tested. Which IC50 [1] did it give?
**A.** 2000 nM

**Q.** `CC(COc1ccc(-c2nc3c(OC4(C)CC4)ncnc3n2Cc2cc(Cl)ccc2F)c(Cl)c1)CC(=O)O` (racemic) [Example U45, 4-(3-chloro-4-(9-(5-chloro-2-fluorobenzyl)-6-(1-methylcyclopropoxy)-9H-purin-8-yl)phenoxy)-3-methylbutanoic acid] was tested. Which IC50 [1] did it give?
**A.** 79.4 nM

**Q.** Which IC50 [1] does the source give for `COc1ncc(Cl)cc1Cn1c(-c2ccc(OCCC(C)C(=O)O)cc2Cl)nc2c(OC3(C)CC3)ncnc21` (racemic) [Example U53, 4-(3-chloro-4-(9-((5-chloro-2-methoxypyridin-3-yl)methyl)-6-(1-methylcyclopropoxy)-9H-purin-8-yl)phenoxy)-2-methylbutanoic acid] here?
**A.** 316 nM

**Q.** `CCOc1ccc(Cl)cc1Cn1c(-c2ccc(OCCC(C)C(=O)O)cc2Cl)nc2c(OC3(C)CC3)ncnc21` (racemic) [Example U59, 4-(3-chloro-4-(9-(5-chloro-2-ethoxybenzyl)-6-(1-methylcyclopropoxy)-9H-purin-8-yl)phenoxy)-2-methylbutanoic acid] was tested. Which IC50 [1] did it give?
**A.** 63.1 nM

**Q.** With `CC(CCOc1ccc(-c2nc3c(OC4(C)CC4)ncnc3n2Cc2cc(Cl)ccc2OC(F)F)c(Cl)c1)C(=O)O` (racemic) [Example U60, 4-(3-chloro-4-(9-(5-chloro-2-(difluoromethoxy)benzyl)-6-(1-methylcyclopropoxy)-9H-purin-8-yl)phenoxy)-2-methylbutanoic acid] as the compound, how does the IC50 [1] read?
**A.** 126 nM

**Q.** For `COc1c(F)cc(Cl)cc1Cn1c(-c2ccc(OCCC(C)C(=O)O)cc2Cl)nc2c(OC3(C)CC3)ncnc21` (racemic) [Example U61, 4-(3-chloro-4-(9-(5-chloro-3-fluoro-2-methoxybenzyl)-6-(1-methylcyclopropoxy)-9H-purin-8-yl)phenoxy)-2-methylbutanoic acid], which IC50 [1] is on record?
**A.** 158 nM

**Q.** Which IC50 (DLD-1, first proliferation column (c5), taken as DLD-1 BRCA2-/-, read-out: POLQ PD Prolif Lumin (converted)) does the source give for `Cc1ccnc(Cn2c(-c3ccc(O[C@@H]4CC[C@@H](O)C4)cc3Cl)nc3c(OC4(C)CC4)ncnc32)c1` (relative stereo) [Example T330, rel-(1R,3R)-3-(3-chloro-4-(6-(1-methylcyclopropoxy)-9-((4-methylpyridin-2-yl)methyl)-9H-purin-8-yl)phenoxy)cyclopentan-1-ol] here?
**A.** 200 nM

**Q.** With `CC1(Oc2ncnc3c2nc(-c2ccc(OCCN4C[C@H]5CC[C@@H]4CN5)cc2Cl)n3Cc2ccccc2)CC1` (relative stereo) [Example T604, rel-(1R,4R)-2-(2-(4-(9-benzyl-6-(1-methylcyclopropoxy)-9H-purin-8-yl)-3-chlorophenoxy)ethyl)-2,5-diazabicyclo[2.2.2]octane] as the compound, how does the IC50 (DLD-1, first proliferation column, DLD-1 BRCA2-/-, read-out: POLQ PD Prolif Lumin (converted)) read?
**A.** 251 nM

**Q.** Which IC50 (DLD-1, 288 h, DLD-1 BRCA2−/− cells, 12 days, read-out: POLQ PD Prolif Lumin BRCA2 −/− mean pIC50 (converted)) does the source give for `CC(Cc1ccccn1)n1c(-c2ccc(OCCN3CCNCC3)cc2Cl)nc2c(OC3(C)CC3)ncnc21` (single isomer, unassigned) [Example S7, 8-(2-chloro-4-(2-(piperazin-1-yl)ethoxy)phenyl)-6-(1-methylcyclopropoxy)-9-(1-(pyridin-2-yl)propan-2-yl)-9H-purine] here?
**A.** 6310 nM

**Q.** `Cc1ccnc(Cn2c(-c3ccc(OCC(F)CO)cc3Cl)nc3c(OC4(C)CC4)ncnc32)c1` (single isomer, unassigned) [Example T109, 3-(3-chloro-4-(6-(1-methylcyclopropoxy)-9-((4-methylpyridin-2-yl)methyl)-9H-purin-8-yl)phenoxy)-2-fluoropropan-1-ol] was tested. Which IC50 [2] did it give?
**A.** 158 nM

**Q.** With `Cc1ccnc(Cn2c(-c3ccc(OC(C)CO)cc3Cl)nc3c(OC4(C)CC4)ncnc32)c1` (single isomer, unassigned) [Example T127, 2-(3-chloro-4-(6-(1-methylcyclopropoxy)-9-((4-methylpyridin-2-yl)methyl)-9H-purin-8-yl)phenoxy)propan-1-ol] as the compound, how does the IC50 [2] read?
**A.** 251 nM

**Q.** `Cc1ccnc(Cn2c(-c3ccc(C4CCC(=O)N4)cc3Cl)nc3c(OC4(C)CC4)ncnc32)c1` (single isomer, unassigned) [Example T172, 5-(3-chloro-4-(6-(1-methylcyclopropoxy)-9-((4-methylpyridin-2-yl)methyl)-9H-purin-8-yl)phenyl)pyrrolidin-2-one] was tested. Which IC50 [2] did it give?
**A.** 398 nM

**Q.** Which IC50 [2] does the source give for `Cc1ccnc(Cn2c(-c3ccc(C4CNC(=O)C4)cc3Cl)nc3c(OC4(C)CC4)ncnc32)c1` (single isomer, unassigned) [Example T174, 4-(3-chloro-4-(6-(1-methylcyclopropoxy)-9-((4-methylpyridin-2-yl)methyl)-9H-purin-8-yl)phenyl)pyrrolidin-2-one] here?
**A.** 501 nM

**Q.** `CC(CCOc1ccc(-c2nc3c(OC4(C)CC4)ncnc3n2Cc2cccc(F)c2F)c(Cl)c1)C(=O)O` (single isomer, unassigned) [Example T261, 4-(3-chloro-4-(9-(2,3-difluorobenzyl)-6-(1-methylcyclopropoxy)-9H-purin-8-yl)phenoxy)-2-methylbutanoic acid] was tested. Which IC50 [3] did it give?
**A.** 631 nM

**Q.** Which “POLQ PD Prolif Lumin” value (column head only partly shown) does the source give for `CC(CCOc1ccc(-c2nc3c(OC4(C)CC4)ncnc3n2Cc2cccc(F)c2F)c(Cl)c1)C(=O)O` (single isomer, unassigned) [Example T262, 4-(3-chloro-4-(9-(2,3-difluorobenzyl)-6-(1-methylcyclopropoxy)-9H-purin-8-yl)phenoxy)-2-methylbutanoic acid] here?
**A.** 6.3

**Q.** For `CC(CCOc1ccc(-c2nc3c(OC4(C)CC4)ncnc3n2Cc2c(F)cccc2F)c(Cl)c1)C(=O)O` (single isomer, unassigned) [Example T263, 4-(3-chloro-4-(9-(2,6-difluorobenzyl)-6-(1-methylcyclopropoxy)-9H-purin-8-yl)phenoxy)-2-methylbutanoic acid], which IC50 [3] is on record?
**A.** 794 nM

**Q.** For `CC(CCOc1ccc(-c2nc3c(OC4(C)CC4)ncnc3n2Cc2cccc(Cl)c2F)c(Cl)c1)C(=O)O` (single isomer, unassigned) [Example T270, 4-(3-chloro-4-(9-(3-chloro-2-fluorobenzyl)-6-(1-methylcyclopropoxy)-9H-purin-8-yl)phenoxy)-2-methylbutanoic acid], which IC50 [3] is on record?
**A.** 501 nM

**Q.** How did the “POLQ PD Prolif Lumin” value (column head only partly shown) turn out when `CC(CCOc1ccc(-c2nc3c(OC4(C)CC4)ncnc3n2Cc2cccc(Cl)c2F)c(Cl)c1)C(=O)O` (single isomer, unassigned) [Example T271, 4-(3-chloro-4-(9-(3-chloro-2-fluorobenzyl)-6-(1-methylcyclopropoxy)-9H-purin-8-yl)phenoxy)-2-methylbutanoic acid] was run?
**A.** 6.4

**Q.** Which IC50 [3] does the source give for `CC(CCOc1ccc(-c2nc3c(OC4(C)CC4)ncnc3n2Cc2cc(F)cc(Cl)c2)c(Cl)c1)C(=O)O` (single isomer, unassigned) [Example T272, 4-(3-chloro-4-(9-(3-chloro-5-fluorobenzyl)-6-(1-methylcyclopropoxy)-9H-purin-8-yl)phenoxy)-2-methylbutanoic acid] here?
**A.** 200 nM

**Q.** For `CC(CCOc1ccc(-c2nc3c(OC4(C)CC4)ncnc3n2Cc2cc(F)cc(Cl)c2)c(Cl)c1)C(=O)O` (single isomer, unassigned) [Example T273, 4-(3-chloro-4-(9-(3-chloro-5-fluorobenzyl)-6-(1-methylcyclopropoxy)-9H-purin-8-yl)phenoxy)-2-methylbutanoic acid], which “POLQ PD Prolif Lumin” value (column head only partly shown) is on record?
**A.** 6.8

— patent US20250195530A1, “POLQ INHIBITORS” (ASTRAZENECA AB, priority 2022, published 2025)
